{"source": "patent US9168243B2", "about": "“Pharmaceutical compositions comprising 8-substituted dibenzylbutyrolactone lignans” (priority 2010, dated 2015)", "key": {"[1]": {"tested_on": "insulin receptor (IR) β-subunit and IGF-I receptor (IGF-IR) β-subunit", "assay": "Immunoprecipitation of IRβ and IGF-IRβ after insulin or IGF-I stimulation, Western blot for phospho-tyrosine and PI3K p85α", "format": "cell-based", "conditions": "serum-starved LNCaP; 40-100 μM NTG 2 hours before 10 nM insulin or IGF-I, 10 minutes", "procedure": "The cells were treated with 0-100 μM lignans or solvent control for indicated times. Human recombinant isoleucin-zipper TRAIL (izTRAIL; kindly provided by Professor Henning Walczak) was used at 0-1 μg/ml with an incubation time of 20 hours. Prior to 10 minutes treatment with 10 nM IGF-1 (Millipore) or 10 nM insulin (Sigma) the cells were serum-starved (1% FCS) overnight. EGFR stimulation was performed on serum-starved cells with 20 ng/ml EGF for 5 minutes (a kind gift from Professor Klaus Elenius laboratory).\nThe cells cultured on […] were placed on ice and rinsed with cold PBS. The cells were lysed in 1 ml of cold lysis buffer (50 mM Tris pH 7.4, 150 mM NaCl, 1 mM EDTA, 1.25% CHAPS, 1 mM Na3OV4, 2 mM NaF, 10 mM sodium pyrophosphate and complete protease inhibitor cocktail [Roche Applied Science]) for 10 minutes. […]\nTo further investigate the specificity of this inhibitory effect, LNCaP cells were serum-starved overnight, treated with 0-100 μM NTG for 2 hours, and activated for 10 minutes with 10 nM insulin or IGF-I, after which insulin receptor (IR) β-subunit and IGF-I receptor (IGF-IR) β-subunit were immunoprecipitated (FIG. 5B). The precipitated complexes were analyzed by Western blotting for presence of PI3K p85α (85 kDa), IRβ (95 kDa), IGF-IRβ (95 kDa) and phospho-tyrosine and the expression of PI3K p85α, Akt and phospho-Akt(ser473) was probed from the lysates. […]"}, "LNCaP cells": {"tested_on": "LNCaP cells", "assay": "Clonogenic assay", "format": "cell-based", "conditions": "11 days", "procedure": "Five hundred LNCaP cells were plated in 1 ml of culture medium and let to adhere prior to addition of the indicated treatments. After 11 days of incubation, cell colonies were fixed with glutaraldehyde (6.0% v/v), stained with crystal violet (0.5% w/v) and imaged using a digital camera.\nTo investigate the effects of NTG alone and in combination with TRAIL on colony formation ability, the LNCaP cells were plated in low confluency and treated for 11 days."}, "[2]": {"tested_on": "DMBA-induced mammary tumors", "conditions": "cited from earlier work"}, "phospho-GSK-3β(ser9)": {"tested_on": "phospho-GSK-3β(ser9)", "assay": "Western blot of GSK-3β / phospho-GSK-3β(ser9)", "format": "cell-based", "conditions": "LNCaP +/- 1 nM androgen; 100 μM NTG, 0-8 hours", "procedure": "Whole cell lysates were prepared by lysing floating and attached cells in Laemmli sample buffer and boiling the samples for 10 minutes. Proteins were separated by SDS-PAGE and transferred on PVDF membrane (Millipore). Western blotting was performed using antibodies against Akt, phospho-Akt (Ser473), GSK-3β, phospho-GSK-3β (Ser9) and phospho-EGF receptor Tyr(1068) (Cell Signalling Technology), Actin (clone AC-40; Sigma-Aldrich), PI3K p85α (clone 4/PI3-Kinase; BD Pharmingen), EGF receptor, Insulin receptor β and IGF-I receptor β (Santa Cruz Biotechnology), and Phospho-tyrosine (clone 4G10; Millipore). HRP-conjugated secondary antibodies were from Southern Biotechnology Associates, Promega, and Amersham Biosciences. The results were visualized using the ECL method (Amersham Biosciences) on x-ray film. The presented Western blot results are representative of at least three independent experiments. […]\nLNCaP cells (+/−1 nM androgen) were treated with 0-100 μM enterolactone (ENL), matairesinol (MAT) or NTG for 1 hour prior to preparation of total cell lysates (FIG. 4A). The relative decrease in pAkt/Akt ratio was quantified from western blot analysis with Akt (60 kDa) and phospho-Akt(ser473) (Mean±SEM; n=4; Student's t-test *p<0.05, **p<0.01). […] The western blot analysis with Akt, phospho-Akt(ser473), GSK-3β and phospho-GSK-3β(ser9) was quantified. […]"}}, "data": [{"compound": "COc1cc(CC2COC(=O)C2(O)Cc2ccc(O)c(OC)c2)ccc1O", "note": "(stereo not shown) [NTG, Nortrachelogenin]", "values": [{"measurement": "amount of receptor-associated PI3K p85", "setting": "[1]", "result": "clearly reduced"}, {"measurement": "receptor tyrosine phosphorylation of IR and IGF-IR", "setting": "[1]", "result": "decreased"}, {"measurement": "colony formation ability, single agent", "setting": "LNCaP cells; 10 ng/ml TRAIL or 40 μM NTG alone", "result": "clearly inhibited the growth of the plated cells"}, {"measurement": "colony formation ability, NTG and TRAIL in combination", "setting": "LNCaP cells; 40 μM NTG and 10 ng/ml TRAIL", "result": "significant death of the cells that were seeded"}, {"measurement": "growth of DMBA-induced mammary tumors", "setting": "[2]; during promotion and early progression", "result": "did not inhibit the growth of DMBA-induced mammary tumors"}, {"measurement": "endocrine-modulatory effects", "setting": "[2]; long-term experiments", "result": "weak endocrine-modulatory effects"}, {"measurement": "GSK-3β phosphorylation (pGSK-3β/GSK-3β ratio)", "setting": "phospho-GSK-3β(ser9)", "result": "downregulates Akt and GSK-3β phosphorylation"}]}]}
